Values after ≈ are worked out from the molar mass of the structure shown.
Key:
[1] = Solubility of compound in FaSSIF at pH 6.5 measured after 4 hrs by HPLC-UV analysis; format: physicochemical
[2] = target: Cyclic GMP-AMP synthase (Homo sapiens) (UniProt Q8N884); experiment: Inhibition of cGAS in human whole blood incubated for 6 hrs by cytometric bead array; format: tissue-based
[3] = target: Cyclic GMP-AMP synthase (Homo sapiens) (UniProt Q8N884); experiment: Inhibition of human recombinant cGAS (157 to 522 residues) extracted from Escherichia coli BL21(DE3)cells using GTP/ATP as substrate incubated for 1 to 2 hrs by Rapidfire 300 mass spectrometric analysis; details: time 1-2 hrs

Cyclic GMP-AMP synthase (Homo sapiens), sequence (Q8N884 whole entry, the tested form may be a part): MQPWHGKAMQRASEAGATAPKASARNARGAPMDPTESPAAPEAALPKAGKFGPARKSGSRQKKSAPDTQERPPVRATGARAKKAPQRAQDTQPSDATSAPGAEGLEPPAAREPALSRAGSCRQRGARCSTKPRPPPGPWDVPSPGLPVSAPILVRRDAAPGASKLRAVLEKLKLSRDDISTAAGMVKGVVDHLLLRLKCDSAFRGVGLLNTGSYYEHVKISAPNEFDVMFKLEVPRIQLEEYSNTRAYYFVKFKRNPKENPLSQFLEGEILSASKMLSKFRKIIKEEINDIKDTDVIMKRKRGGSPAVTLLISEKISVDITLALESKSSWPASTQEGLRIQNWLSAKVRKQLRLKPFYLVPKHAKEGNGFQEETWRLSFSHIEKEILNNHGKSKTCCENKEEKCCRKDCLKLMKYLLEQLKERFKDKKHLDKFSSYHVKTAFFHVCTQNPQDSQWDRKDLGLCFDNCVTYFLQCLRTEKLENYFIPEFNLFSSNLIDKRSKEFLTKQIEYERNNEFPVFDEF

SMILES | solubility at 4 h [1] | pXC50 [2] | pXC50 [3]
FC(F)(F)c1n[nH]c(-c2nc3ncccn3c2-c2c[nH]cn2)n1 | 4 µg/mL (≈ 12.5 µM) | – | –
O=C(CCCOP(=O)(O)O)OCn1cnc(-c2c(-c3nc(C(F)(F)F)nn3COC(=O)CCCOP(=O)(O)O)nc3ncccn23)c1.O=C(O)C(F)(F)F | > 1000 µg/mL | 6.5 | 7.5
Fc1cnc2nc(-c3nc(C(F)(F)F)n[nH]3)c(-c3c[nH]cn3)n2c1 | 5 µg/mL (≈ 14.8 µM) | 6.5 | 8.4
O=P(O)(O)OCn1nc(C(F)(F)F)nc1-c1nc2ncc(F)cn2c1-c1cnc[nH]1 | > 1000 µg/mL | – | 6.1

— ChEMBL document CHEMBL6109165, “Novel Triazole-Substituted Imidazo[1,2-a]Pyrimidine Compounds as cGAS inhibitors” (ACS Med Chem Lett, 2025)
